Test: wn = mass fraction of the nth substance listed
Details: Liquid; for mass density: Vibrating tube method

NCCO [2-aminoethan-1-ol] + O
mass density [kg/m3]
Details | w1 = 0.1001 | w1 = 0.2 | w1 = 0.3005 | w1 = 0.4
333.15 K, 30000 kPa | – | – | 1003.5 | 1006.7
333.15 K, 40000 kPa | 1002.7 | 1004.5 | 1007.3 | 1010.4
333.15 K, 50000 kPa | 1006.5 | 1008 | 1010.8 | 1013.8
333.15 K, 60000 kPa | 1010.4 | 1011.7 | 1014.4 | 1017.3
333.15 K, 70000 kPa | 1014.1 | 1015.2 | 1017.8 | 1020.7
333.15 K, 80000 kPa | 1017.7 | 1018.7 | 1021.1 | 1024
333.15 K, 90000 kPa | 1021.3 | 1022.1 | 1024.4 | 1027.1
333.15 K, 100000 kPa | 1024.8 | 1025.5 | 1027.7 | 1030.3
333.15 K, 110000 kPa | 1028.1 | 1028.8 | 1031 | 1033.5
333.15 K, 120000 kPa | 1031.7 | 1032.2 | 1034.2 | 1036.7
353.15 K, 100 kPa | 974.7 | 976.7 | 979.2 | 981.9
353.15 K, 500 kPa | 974.7 | 976.7 | 979.4 | 982
353.15 K, 1000 kPa | 975 | 976.9 | 979.6 | 982.2
353.15 K, 2000 kPa | 975.4 | 977.4 | 980 | 982.6
353.15 K, 5000 kPa | 976.7 | 978.6 | 981.2 | 983.9
353.15 K, 10000 kPa | 978.9 | 980.8 | 983.3 | 986
353.15 K, 15000 kPa | 981.1 | 982.9 | 985.4 | 988
353.15 K, 20000 kPa | 983.2 | 984.9 | 987.4 | 990
353.15 K, 30000 kPa | 987.4 | 988.9 | 991.4 | 993.9
353.15 K, 40000 kPa | 991.4 | 992.9 | 995.2 | 997.7
353.15 K, 50000 kPa | 995.4 | 996.7 | 999 | 1001.4
353.15 K, 60000 kPa | 999.4 | 1000.6 | 1002.7 | 1005.1
353.15 K, 70000 kPa | 1003.1 | 1004.2 | 1006.2 | 1008.6
353.15 K, 80000 kPa | 1006.9 | 1007.7 | 1009.8 | 1012.1
353.15 K, 90000 kPa | 1010.5 | 1011.3 | 1013.1 | 1015.3
353.15 K, 100000 kPa | 1014.1 | 1014.7 | 1016.6 | 1018.7
353.15 K, 110000 kPa | 1017.7 | 1018.2 | 1020 | 1022.1
353.15 K, 120000 kPa | 1021.2 | 1021.6 | 1023.3 | 1025.2
373.15 K, 100 kPa | 960.8 | 962.5 | 964.5 | 966.6
373.15 K, 500 kPa | 961 | 962.7 | 964.8 | 966.9
373.15 K, 1000 kPa | 961.3 | 962.9 | 965 | 967.1
373.15 K, 2000 kPa | 961.8 | 963.4 | 965.5 | 967.6
373.15 K, 5000 kPa | 963.1 | 964.7 | 966.8 | 968.9
373.15 K, 10000 kPa | 965.5 | 966.9 | 969 | 971.1
373.15 K, 15000 kPa | 967.7 | 969.1 | 971.2 | 973.3
373.15 K, 20000 kPa | 969.9 | 971.3 | 973.4 | 975.4
373.15 K, 30000 kPa | 974.4 | 975.6 | 977.6 | 979.7
373.15 K, 40000 kPa | 978.7 | 979.8 | 981.7 | 983.8
373.15 K, 50000 kPa | 982.8 | 983.7 | 985.6 | 987.6
373.15 K, 60000 kPa | 986.8 | 987.7 | 989.5 | 991.6
373.15 K, 70000 kPa | 990.8 | 991.5 | 993.3 | 995.2
373.15 K, 80000 kPa | 994.8 | 995.4 | 997.1 | 999.1
373.15 K, 90000 kPa | 998.5 | 999 | 1000.8 | 1002.5
373.15 K, 100000 kPa | 1002.2 | 1002.5 | 1004.2 | 1006
373.15 K, 110000 kPa | 1005.9 | 1006.1 | 1007.7 | 1009.5
373.15 K, 120000 kPa | 1009.6 | 1009.6 | 1011.1 | 1012.9
393.15 K, 100 kPa | 945.2 | 946.5 | 948.4 | 950
393.15 K, 500 kPa | 945.6 | 946.9 | 948.8 | 950.4
393.15 K, 1000 kPa | 945.8 | 947 | 948.9 | 950.6
393.15 K, 2000 kPa | 946.3 | 947.5 | 949.4 | 951.1
393.15 K, 5000 kPa | 947.8 | 949 | 950.9 | 952.5
393.15 K, 10000 kPa | 950.3 | 951.5 | 953.3 | 955
393.15 K, 15000 kPa | 952.7 | 953.8 | 955.7 | 957.3
393.15 K, 20000 kPa | 955.2 | 956.2 | 958.1 | 959.7
393.15 K, 30000 kPa | 959.8 | 960.7 | 962.6 | 964.3
393.15 K, 40000 kPa | 964.4 | 965.2 | 967 | 968.7
393.15 K, 50000 kPa | 968.7 | 969.4 | 971.1 | 972.8
393.15 K, 60000 kPa | 973 | 973.6 | 975.3 | 977
393.15 K, 70000 kPa | 977.3 | 977.8 | 979.5 | 981.1
393.15 K, 80000 kPa | 981.3 | 981.6 | 983.2 | 985
393.15 K, 90000 kPa | 985.2 | 985.6 | 987.1 | 988.8
393.15 K, 100000 kPa | 989.1 | 989.4 | 990.9 | 992.5
393.15 K, 110000 kPa | 993 | 993 | 994.6 | 996.2
393.15 K, 120000 kPa | 996.7 | 996.7 | 998.2 | 999.7

viscosity [mPa·s]
Details | 333.15 K | 353.15 K
93 kPa, Concentric cylinders viscometry, w1 = 0.3 | – | 0.764
93 kPa, Concentric cylinders viscometry, w1 = 0.4 | – | 0.9518
100 kPa, Falling or rolling sphere viscometry, w1 = 0.3005 | – | 0.746
100 kPa, Falling or rolling sphere viscometry, w1 = 0.4001 | – | 0.942
101 kPa, Falling or rolling sphere viscometry, w1 = 0.3 | – | 0.746
101 kPa, Falling or rolling sphere viscometry, w1 = 0.4 | – | 0.942
5000 kPa, Falling or rolling sphere viscometry, w1 = 0.3005 | – | 0.748
5000 kPa, Falling or rolling sphere viscometry, w1 = 0.4001 | – | 0.944
10000 kPa, Falling or rolling sphere viscometry, w1 = 0.3005 | – | 0.755
10000 kPa, Falling or rolling sphere viscometry, w1 = 0.4001 | – | 0.957
20000 kPa, Falling or rolling sphere viscometry, w1 = 0.3005 | – | 0.768
20000 kPa, Falling or rolling sphere viscometry, w1 = 0.4001 | – | 0.975
30000 kPa, Falling or rolling sphere viscometry, w1 = 0.3005 | – | 0.777
30000 kPa, Falling or rolling sphere viscometry, w1 = 0.4001 | – | 0.989
40000 kPa, Falling or rolling sphere viscometry, w1 = 0.1001 | 0.63 | –
40000 kPa, Falling or rolling sphere viscometry, w1 = 0.2 | 0.815 | –
40000 kPa, Falling or rolling sphere viscometry, w1 = 0.3005 | 1.115 | 0.787
40000 kPa, Falling or rolling sphere viscometry, w1 = 0.4001 | 1.475 | 1.006
60000 kPa, Falling or rolling sphere viscometry, w1 = 0.1001 | 0.639 | –
60000 kPa, Falling or rolling sphere viscometry, w1 = 0.2 | 0.829 | 0.607
60000 kPa, Falling or rolling sphere viscometry, w1 = 0.3005 | 1.14 | 0.807
60000 kPa, Falling or rolling sphere viscometry, w1 = 0.4001 | 1.518 | 1.039
80000 kPa, Falling or rolling sphere viscometry, w1 = 0.1001 | 0.646 | –
80000 kPa, Falling or rolling sphere viscometry, w1 = 0.2 | 0.844 | 0.619
80000 kPa, Falling or rolling sphere viscometry, w1 = 0.3005 | 1.165 | 0.828
80000 kPa, Falling or rolling sphere viscometry, w1 = 0.4001 | 1.559 | 1.068
100000 kPa, Falling or rolling sphere viscometry, w1 = 0.1001 | 0.655 | –
100000 kPa, Falling or rolling sphere viscometry, w1 = 0.2 | 0.859 | 0.632
100000 kPa, Falling or rolling sphere viscometry, w1 = 0.3005 | 1.189 | 0.847
100000 kPa, Falling or rolling sphere viscometry, w1 = 0.4001 | 1.6 | 1.097
120000 kPa, Falling or rolling sphere viscometry, w1 = 0.1001 | 0.663 | –
120000 kPa, Falling or rolling sphere viscometry, w1 = 0.2 | 0.874 | 0.644
120000 kPa, Falling or rolling sphere viscometry, w1 = 0.3005 | 1.211 | 0.861
120000 kPa, Falling or rolling sphere viscometry, w1 = 0.4001 | 1.645 | 1.128

From the NIST ThermoML archive (doi:10.1016/j.jct.2016.03.021)
